Earlier results in PubChem BioAssay AID1259409 (Chemical Carcinogenesis Research Information System (CCRIS), 2018).

System: rodent chemically induced tumor inhibition, incidence and multiplicity
Test: CCRIS tumor inhibitor studies
Details: Dose [Inhibitor]: 0, Route [Inhibitor]: ORAL

Structure (SMILES): O=C(O)c1ccc(O)c(O)c1
- tumour outcome (control, treated, inhibition, significance) (Carcinogen: N-BUTYL-N-(4-HYDROXYBUTYL)NITROSAMINE, 3817-11-6, 2000 PPM IN DIET FOR 33 WK BEGINNING 1 WK POST CARCINOGEN TREATMENT (STUDY DURATION: 41 WK), Species: RAT, Strain/Sex: F344/MALE, Target Tissue: Type of Lesion: BLADDER: CARCINOMA, Dose [Carcinogen]: 0.05% IN DRINKING WATER FOR 6 WK, Promoter: NONE USED): 17/22 (77%), 11/27 (41%), 47%, p<0.03
- tumour outcome (control, treated, inhibition, significance) (Carcinogen: N-BUTYL-N-(4-HYDROXYBUTYL)NITROSAMINE, 3817-11-6, 2000 PPM IN DIET FOR 33 WK BEGINNING 1 WK POST CARCINOGEN TREATMENT (STUDY DURATION: 41 WK), Species: RAT, Strain/Sex: F344/MALE, Target Tissue: Type of Lesion: BLADDER: PAPILLOMA, Dose [Carcinogen]: 0.05% IN DRINKING WATER FOR 6 WK, Promoter: NONE USED): 1/22 (5%), 1/27 (4%), 20%, not significant
- tumour outcome (control, treated, inhibition, significance) (Carcinogen: N-METHYL-N-NITROSOUREA, 684-93-5, 1000 PPM IN DIET FOR 14 WK BEGINNING 1 WK PRIOR TO CARCINOGEN TREATMENT (STUDY DURATION: 32 WK), Species: RAT, Strain/Sex: F344/MALE, Target Tissue: Type of Lesion: GLANDULAR STOMACH: ADENOCARCINOMA, Dose [Carcinogen]: 400 PPM IN DRINKING WATER FOR 12 WK, Promoter: NONE USED): 59%, 18%, 69%, p<0.05
- tumour outcome (control, treated, inhibition, significance) (Carcinogen: N-METHYL-N-NITROSOUREA, 684-93-5, 1000 PPM IN DIET FOR 14 WK BEGINNING 1 WK PRIOR TO CARCINOGEN TREATMENT (STUDY DURATION: 36 WK), Species: RAT, Strain/Sex: F344/MALE, Target Tissue: Type of Lesion: GLANDULAR STOMACH: ADENOCARCINOMA, Dose [Carcinogen]: 400 PPM IN DRINKING WATER FOR 12 WK, Promoter: NONE USED): 13/22 (59%), 4/22 (18%), 69%, p<0.05
- tumour outcome (control, treated, inhibition, significance) (Carcinogen: N-NITROSOBIS(2-OXOPROPYL)AMINE, 60599-38-4, 500 PPM IN DIET FOR 49 WK BEGINNING 1 WK POST CARCINOGEN LAST TREATMENT (STUDY DURATION: 51 WK), Species: HAMSTER, Strain/Sex: SYRIAN/FEMALE, Target Tissue: Type of Lesion: KIDNEY: ADENOCARCINOMA, Dose [Carcinogen]: 20 MG/KG BW 1/WK FOR 2 WK): 7%, 7%, 0%, not significant
- tumour outcome (control, treated, inhibition, significance) (Carcinogen: N-NITROSOBIS(2-OXOPROPYL)AMINE, 60599-38-4, 500 PPM IN DIET FOR 49 WK BEGINNING 1 WK POST CARCINOGEN LAST TREATMENT (STUDY DURATION: 51 WK), Species: HAMSTER, Strain/Sex: SYRIAN/FEMALE, Target Tissue: Type of Lesion: LIVER: CHOLANGIOCELLULAR CARCINOMA, Dose [Carcinogen]: 20 MG/KG BW 1/WK FOR 2 WK): 65.5%, 59%, 12%, not significant
- tumour outcome (control, treated, inhibition, significance) (Carcinogen: N-NITROSOBIS(2-OXOPROPYL)AMINE, 60599-38-4, 500 PPM IN DIET FOR 49 WK BEGINNING 1 WK POST CARCINOGEN LAST TREATMENT (STUDY DURATION: 51 WK), Species: HAMSTER, Strain/Sex: SYRIAN/FEMALE, Target Tissue: Type of Lesion: LIVER: HEMANGIOMA, Dose [Carcinogen]: 20 MG/KG BW 1/WK FOR 2 WK): 3%, 0%, 100%, not significant
- tumour outcome (control, treated, inhibition, significance) (Carcinogen: N-NITROSOBIS(2-OXOPROPYL)AMINE, 60599-38-4, 500 PPM IN DIET FOR 49 WK BEGINNING 1 WK POST CARCINOGEN LAST TREATMENT (STUDY DURATION: 51 WK), Species: HAMSTER, Strain/Sex: SYRIAN/FEMALE, Target Tissue: Type of Lesion: LIVER: HEPATOCELLULAR ADENOMA, Dose [Carcinogen]: 20 MG/KG BW 1/WK FOR 2 WK): 72%, 79%, -9%, not significant
- tumour outcome (control, treated, inhibition, significance) (Carcinogen: N-NITROSOBIS(2-OXOPROPYL)AMINE, 60599-38-4, 500 PPM IN DIET FOR 49 WK BEGINNING 1 WK POST CARCINOGEN LAST TREATMENT (STUDY DURATION: 51 WK), Species: HAMSTER, Strain/Sex: SYRIAN/FEMALE, Target Tissue: Type of Lesion: LIVER: HEPATOCELLULAR CARCINOMA, Dose [Carcinogen]: 20 MG/KG BW 1/WK FOR 2 WK): 17%, 14%, 20%, not significant
- tumour outcome (control, treated, inhibition, significance) (Carcinogen: N-NITROSOBIS(2-OXOPROPYL)AMINE, 60599-38-4, 500 PPM IN DIET FOR 49 WK BEGINNING 1 WK POST CARCINOGEN LAST TREATMENT (STUDY DURATION: 51 WK), Species: HAMSTER, Strain/Sex: SYRIAN/FEMALE, Target Tissue: Type of Lesion: LUNG: ADENOCARCINOMA, Dose [Carcinogen]: 20 MG/KG BW 1/WK FOR 2 WK): 33%, 33%, 0%, not significant
- tumour outcome (control, treated, inhibition, significance) (Carcinogen: N-NITROSOBIS(2-OXOPROPYL)AMINE, 60599-38-4, 500 PPM IN DIET FOR 49 WK BEGINNING 1 WK POST CARCINOGEN LAST TREATMENT (STUDY DURATION: 51 WK), Species: HAMSTER, Strain/Sex: SYRIAN/FEMALE, Target Tissue: Type of Lesion: LUNG: ADENOMA, Dose [Carcinogen]: 20 MG/KG BW 1/WK FOR 2 WK): 83%, 87%, -4%, not significant
- tumour outcome (control, treated, inhibition, significance) (Carcinogen: N-NITROSOBIS(2-OXOPROPYL)AMINE, 60599-38-4, 500 PPM IN DIET FOR 49 WK BEGINNING 1 WK POST CARCINOGEN LAST TREATMENT (STUDY DURATION: 51 WK), Species: HAMSTER, Strain/Sex: SYRIAN/FEMALE, Target Tissue: Type of Lesion: OVARY: CYSTADENOMA, Dose [Carcinogen]: 20 MG/KG BW 1/WK FOR 2 WK): 3%, 3%, 0%, not significant
- tumour outcome (control, treated, inhibition, significance) (Carcinogen: N-NITROSOBIS(2-OXOPROPYL)AMINE, 60599-38-4, 500 PPM IN DIET FOR 49 WK BEGINNING 1 WK POST CARCINOGEN LAST TREATMENT (STUDY DURATION: 51 WK), Species: HAMSTER, Strain/Sex: SYRIAN/FEMALE, Target Tissue: Type of Lesion: PANCREAS: ADENOCARCINOMA, Dose [Carcinogen]: 20 MG/KG BW 1/WK FOR 2 WK): 86%, 90%, -4%, not significant
- tumour outcome (control, treated, inhibition, significance) (Carcinogen: N-NITROSOBIS(2-OXOPROPYL)AMINE, 60599-38-4, 1000 PPM IN DIET FOR 49 WK BEGINNING 1 WK POST CARCINOGEN LAST TREATMENT (STUDY DURATION: 51 WK), Species: HAMSTER, Strain/Sex: SYRIAN/FEMALE, Target Tissue: Type of Lesion: LIVER: CHOLANGIOCELLULAR ADENOMA, Dose [Carcinogen]: 20 MG/KG BW 1/WK FOR 2 WK): 31%, 34%, -11%, not significant
- tumour outcome (control, treated, inhibition, significance) (Carcinogen: N-NITROSOBIS(2-OXOPROPYL)AMINE, 60599-38-4, 1000 PPM IN DIET FOR 49 WK BEGINNING 1 WK POST CARCINOGEN LAST TREATMENT (STUDY DURATION: 51 WK), Species: HAMSTER, Strain/Sex: SYRIAN/FEMALE, Target Tissue: Type of Lesion: LIVER: CHOLANGIOCELLULAR CARCINOMA, Dose [Carcinogen]: 20 MG/KG BW 1/WK FOR 2 WK): 65%, 55%, 16%, not significant
- tumour outcome (control, treated, inhibition, significance) (Carcinogen: N-NITROSOBIS(2-OXOPROPYL)AMINE, 60599-38-4, 1000 PPM IN DIET FOR 49 WK BEGINNING 1 WK POST CARCINOGEN LAST TREATMENT (STUDY DURATION: 51 WK), Species: HAMSTER, Strain/Sex: SYRIAN/FEMALE, Target Tissue: Type of Lesion: LIVER: HEPATOCELLULAR ADENOMA, Dose [Carcinogen]: 20 MG/KG BW 1/WK FOR 2 WK): 72% 59%, 19%, not significant
- tumour outcome (control, treated, inhibition, significance) (Carcinogen: N-NITROSOBIS(2-OXOPROPYL)AMINE, 60599-38-4, 1000 PPM IN DIET FOR 49 WK BEGINNING 1 WK POST CARCINOGEN LAST TREATMENT (STUDY DURATION: 51 WK), Species: HAMSTER, Strain/Sex: SYRIAN/FEMALE, Target Tissue: Type of Lesion: LIVER: HEPATOCELLULAR CARCINOMA, Dose [Carcinogen]: 20 MG/KG BW 1/WK FOR 2 WK): 17%, 21%, -20%, not significant
- tumour outcome (control, treated, inhibition, significance) (Carcinogen: N-NITROSOBIS(2-OXOPROPYL)AMINE, 60599-38-4, 1000 PPM IN DIET FOR 49 WK BEGINNING 1 WK POST CARCINOGEN LAST TREATMENT (STUDY DURATION: 51 WK), Species: HAMSTER, Strain/Sex: SYRIAN/FEMALE, Target Tissue: Type of Lesion: LUNG: ADENOCARCINOMA, Dose [Carcinogen]: 20 MG/KG BW 1/WK FOR 2 WK): 33%, 39%, -18%, not significant
- tumour outcome (control, treated, inhibition, significance) (Carcinogen: N-NITROSOBIS(2-OXOPROPYL)AMINE, 60599-38-4, 1000 PPM IN DIET FOR 49 WK BEGINNING 1 WK POST CARCINOGEN LAST TREATMENT (STUDY DURATION: 51 WK), Species: HAMSTER, Strain/Sex: SYRIAN/FEMALE, Target Tissue: Type of Lesion: LUNG: ADENOMA, Dose [Carcinogen]: 20 MG/KG BW 1/WK FOR 2 WK): 83%, 89%, -7%, not significant
- tumour outcome (control, treated, inhibition, significance) (Carcinogen: N-NITROSOBIS(2-OXOPROPYL)AMINE, 60599-38-4, 1000 PPM IN DIET FOR 49 WK BEGINNING 1 WK POST CARCINOGEN LAST TREATMENT (STUDY DURATION: 51 WK), Species: HAMSTER, Strain/Sex: SYRIAN/FEMALE, Target Tissue: Type of Lesion: PANCREAS: ADENOCARCINOMA, Dose [Carcinogen]: 20 MG/KG BW 1/WK FOR 2 WK): 86%, 90%, -4%, not significant
